Reference: patent publication US20120045522A1 (priority 2010, published 2012)

tested on: Leptosphaeria nodorum (LEPTNO); assay: In vitro fungitoxicity (growth inhibition) assay in copper-minus / copper-plus liquid medium; assay type: cell-based; details: CuCl2 10 μM, no test compound; growth in copper-plus vs copper-minus medium across experiments
Protocol: In vitro fungitoxicity assays against Leptosphaeria nodorum (LEPTNO) were conducted using the liquid growth medium described by Coursen and Sisler (American Journal of Botany 1960, 47, 541-549) except that copper micronutrient, normally included as CuSO4, was omitted. The medium, termed “copper-minus,” was prepared by dissolving 10 g glucose, 1.5 g K2HPO4, 2 g KH2PO4 and 1 g (NH4)2SO4 in 1 liter of deionized water and treating the solution with 0.5 g Chelex 100 resin (Bio-Rad Analytical grade, 50-100 mesh, sodium form, cat#142-2822) by stirring at room temperature for 1 h. MgSO4.7H2O (0.5 g) was added, and stirring was continued for a further hour. Trace elements (minus CuSO4), and vitamins described by Coursen and Sisler were added from concentrated stock solutions and the entire medium was sterilized by filtration. Medium containing copper was prepared by adding CuCl2.2H2O to the copper-minus medium at 20 μM. Test compounds were dissolved in dimethylsulfoxide (DMSO) at 10 μg/mL and 1 μL aliquots were added to two wells of flat-bottomed 96-well microtiter plates. Copper-minus medium (100 μL) was added to one of the wells and copper-plus medium to the second well. Control wells, included for each medium, received 1 μL DMSO and 100 μL of medium.
LEPTNO was grown on potato dextrose agar in 9 cm diameter petri dishes for 7 days. Sterile deionized water (20 mL) was added to a culture plate and spores suspended by scraping the surface gently with a sterile plastic loop. The resulting suspension was filtered through a double layer of sterile cheesecloth. Filtered spore suspension (5 mL) was centrifuged in a bench centrifuge at 2000 rpm for 2 min. The resulting spore pellet was resuspended in 10 mL sterile deionized water (which had been treated with Chelex 100 resin using 0.5 g resin per liter of water by stirring at room temperature for 1 h), and recentrifuged. The spores were resuspended in copper-minus medium, and the suspension adjusted to 2×10^5 spores per mL. Microtiter plates were inoculated with 100 μL of this spore suspension and the plates incubated at 25° C. for 72 h before assessing fungal growth by measuring light scattering in a NepheloStar plate reader. Growth inhibition was determined by comparing growth in the presence of test compound with growth in control wells lacking test compound.
Results for growth inhibition by test compounds at 0.05 μg/mL in copper-plus medium (% Inhn. Plus Copper Observed) were compared with predicted values (% Inhn. Plus Copper Predicted) that were calculated using the formula set forth by S. R. Colby in Weeds 1967, 15, 20-22 based on results obtained for the same compounds in copper-minus medium (% Inhn. Minus Copper Observed) and the inhibition attributed to copper chloride alone, as determined by comparing growth in copper-minus and copper-plus media without any test compound across experiments. Results illustrate that hydrazones and copper produce a synergistic fungitoxic effect towards LEPTNO.

Question: With `O.O.[Cl][Cu][Cl]` [CuCl2, CuCl2.2H2O, reference compound] as the compound, how does the “LEPTNO % inhibition attributed to copper chloride alone” value read?
Answer: Its value is 13.2%.

same assay, conditions: Parastagonospora nodorum; test compound at 0.05 μg/mL, copper-minus medium, 72 h at 25° C., light scattering; read-out: LEPTNO % Inhn. Minus Copper Observed

Question: With `O=C(N/N=C1\CCc2c(Cl)cc(Cl)c(O)c21)c1ccc(Cl)cc1` [Compound 2] as the compound, how does the inhibition of growth at 0.05 µg/mL read?
Answer: Its inhibition of growth at 0.05 µg/mL is 16.7%.

Question: With `O=C(N/N=C1\CCc2c(Cl)cc(Cl)c(O)c21)c1ccccc1` [Compound 6] as the compound, how does the inhibition of growth at 0.05 µg/mL read?
Answer: Its inhibition of growth at 0.05 µg/mL is 23.1%.

Question: Which inhibition of growth at 0.05 µg/mL does the source give for `Cc1ccc(C(=O)N/N=C2\CCc3c(Cl)cc(Cl)c(O)c32)c(O)c1` [Compound 8] here?
Answer: Its inhibition of growth at 0.05 µg/mL is 0%.

Question: Which inhibition of growth at 0.05 µg/mL does the source give for `COc1ccc(C(=O)N/N=C2\CCc3c(Cl)cc(Cl)c(O)c32)cc1` [Compound 4] here?
Answer: Its inhibition of growth at 0.05 µg/mL is 3.5%.

Question: For `Cc1ccc(C(=O)N/N=C2\CCc3c(Cl)cc(Cl)c(O)c32)cc1` [Compound 1, 4-Methylbenzoic acid [4,6-dichloro-7-hydroxy-indanylidine]hydrazide], which inhibition of growth at 0.05 µg/mL is on record?
Answer: The inhibition of growth at 0.05 µg/mL was 15.2%.

Question: With `O=C(N/N=C1\CCc2c(Cl)cc(Cl)c(O)c21)c1ccc(C(F)(F)F)cc1` [Compound 5] as the compound, how does the inhibition of growth at 0.05 µg/mL read?
Answer: Its inhibition of growth at 0.05 µg/mL is 20.7%.

Question: For `O=C(N/N=C1\CCc2cccc(O)c21)c1ccccc1` [Compound 7], which inhibition of growth at 0.05 µg/mL is on record?
Answer: Its inhibition of growth at 0.05 µg/mL is 0%.

Question: With `O=C(N/N=C1\CCc2c(Cl)cc(Cl)c(O)c21)c1ccccc1O` [Compound 3] as the compound, how does the inhibition of growth at 0.05 µg/mL read?
Answer: The inhibition of growth at 0.05 µg/mL was 24.9%.

same assay, conditions: test compound at 0.05 μg/mL, copper-plus medium (CuCl2.2H2O), 72 h at 25° C.

Question: For `O=C(N/N=C1\CCc2c(Cl)cc(Cl)c(O)c21)c1ccc(Cl)cc1` [Compound 2], which “LEPTNO % Inhn. Plus Copper Observed” value is on record?
Answer: The value was 96.8%.

Question: For `O=C(N/N=C1\CCc2c(Cl)cc(Cl)c(O)c21)c1ccccc1` [Compound 6], which “LEPTNO % Inhn. Plus Copper Observed” value is on record?
Answer: The value was 94.1%.

Question: With `Cc1ccc(C(=O)N/N=C2\CCc3c(Cl)cc(Cl)c(O)c32)c(O)c1` [Compound 8] as the compound, how does the “LEPTNO % Inhn. Plus Copper Observed” value read?
Answer: The value was 96.9%.

Question: For `COc1ccc(C(=O)N/N=C2\CCc3c(Cl)cc(Cl)c(O)c32)cc1` [Compound 4], which “LEPTNO % Inhn. Plus Copper Observed” value is on record?
Answer: Its value is 96.6%.

Question: Which “LEPTNO % Inhn. Plus Copper Observed” value does the source give for `Cc1ccc(C(=O)N/N=C2\CCc3c(Cl)cc(Cl)c(O)c32)cc1` [Compound 1, 4-Methylbenzoic acid [4,6-dichloro-7-hydroxy-indanylidine]hydrazide] here?
Answer: Its value is 96.8%.

Question: For `O=C(N/N=C1\CCc2c(Cl)cc(Cl)c(O)c21)c1ccc(C(F)(F)F)cc1` [Compound 5], which “LEPTNO % Inhn. Plus Copper Observed” value is on record?
Answer: The value was 97.2%.

Question: For `O=C(N/N=C1\CCc2cccc(O)c21)c1ccccc1` [Compound 7], which “LEPTNO % Inhn. Plus Copper Observed” value is on record?
Answer: Its value is 95.3%.

Question: For `O=C(N/N=C1\CCc2c(Cl)cc(Cl)c(O)c21)c1ccccc1O` [Compound 3], which “LEPTNO % Inhn. Plus Copper Observed” value is on record?
Answer: The value was 97.1%.

tested on: Phytophthora infestans; assay: not given; assay type: in vivo; details: hydrazone 50 ppm plus 50 μM CuCl2.2H2O, applied 24 h before inoculation, assessed 7 days after inoculation, tomato plants

Question: For `O=C(N/N=C1\CCc2c(Cl)cc(Cl)c(O)c21)c1ccc(Cl)cc1` [Compound 2], which TLB % control is on record?
Answer: Its TLB % control is 78%.

Question: Which TLB % control does the source give for `O=C(N/N=C1\CCc2c(Cl)cc(Cl)c(O)c21)c1ccccc1` [Compound 6] here?
Answer: Its TLB % control is 95%.

Question: For `Cc1ccc(C(=O)N/N=C2\CCc3c(Cl)cc(Cl)c(O)c32)c(O)c1` [Compound 8], which TLB % control is on record?
Answer: Its TLB % control is 69%.

Question: With `COc1ccc(C(=O)N/N=C2\CCc3c(Cl)cc(Cl)c(O)c32)cc1` [Compound 4] as the compound, how does the TLB % control read?
Answer: Its TLB % control is 64%.

Question: With `Cc1ccc(C(=O)N/N=C2\CCc3c(Cl)cc(Cl)c(O)c32)cc1` [Compound 1, 4-Methylbenzoic acid [4,6-dichloro-7-hydroxy-indanylidine]hydrazide] as the compound, how does the TLB % control read?
Answer: Its TLB % control is 78%.

Question: For `O=C(N/N=C1\CCc2c(Cl)cc(Cl)c(O)c21)c1ccc(C(F)(F)F)cc1` [Compound 5], which TLB % control is on record?
Answer: Its TLB % control is 53%.

Question: Which TLB % control does the source give for `O=C(N/N=C1\CCc2cccc(O)c21)c1ccccc1` [Compound 7] here?
Answer: The TLB % control was 61%.

Question: Which TLB % control does the source give for `O=C(N/N=C1\CCc2c(Cl)cc(Cl)c(O)c21)c1ccccc1O` [Compound 3] here?
Answer: Its TLB % control is 55%.

tested on: not given; assay: not given; details: not given

Question: For `O=C(N/N=C1\CCc2c(Cl)cc(Cl)c(O)c21)c1ccc(Cl)cc1` [Compound 2], which melting point is on record?
Answer: The melting point was 252 to 255 °C.

Question: With `O=C(N/N=C1\CCc2c(Cl)cc(Cl)c(O)c21)c1ccccc1` [Compound 6] as the compound, how does the melting point read?
Answer: The melting point was 243 to 245 °C.

Question: With `Cc1ccc(C(=O)N/N=C2\CCc3c(Cl)cc(Cl)c(O)c32)c(O)c1` [Compound 8] as the compound, how does the melting point read?
Answer: The melting point was 284 to 288 °C.

Question: With `COc1ccc(C(=O)N/N=C2\CCc3c(Cl)cc(Cl)c(O)c32)cc1` [Compound 4] as the compound, how does the melting point read?
Answer: Its melting point is 230 to 233 °C.

Question: With `Cc1ccc(C(=O)N/N=C2\CCc3c(Cl)cc(Cl)c(O)c32)cc1` [Compound 1, 4-Methylbenzoic acid [4,6-dichloro-7-hydroxy-indanylidine]hydrazide] as the compound, how does the melting point read?
Answer: Its melting point is 218 to 222 °C.

Question: Which melting point does the source give for `O=C(N/N=C1\CCc2c(Cl)cc(Cl)c(O)c21)c1ccc(C(F)(F)F)cc1` [Compound 5] here?
Answer: Its melting point is 245 to 248 °C.

Question: For `O=C(N/N=C1\CCc2cccc(O)c21)c1ccccc1` [Compound 7], which melting point is on record?
Answer: The melting point was 192 to 194 °C.

Question: Which melting point does the source give for `O=C(N/N=C1\CCc2c(Cl)cc(Cl)c(O)c21)c1ccccc1O` [Compound 3] here?
Answer: Its melting point is 285 to 290 °C.
